From patent US9206156B2, “Substituted indole derivatives” (GRÜNENTHAL GMBH, priority 2008, dated 2015)

How the values were obtained:
ORL1 receptor = biological target: T1, ORL1 receptor (Homo sapiens, UniProt P41146); experiment: ORL1 receptor binding assay with 3H-nociceptin/orphanin FQ (WGA-SPA beads); details: c=1 μM test substance; 0.5 nM 3H-nociceptin/orphanin FQ; membranes of recombinant CHO-ORL1 cells
T1 construct: expressed in transfected cells; host or cells: CHO (recombinant CHO-ORL1 cells), membranes
T1 sequence (P41146 whole entry): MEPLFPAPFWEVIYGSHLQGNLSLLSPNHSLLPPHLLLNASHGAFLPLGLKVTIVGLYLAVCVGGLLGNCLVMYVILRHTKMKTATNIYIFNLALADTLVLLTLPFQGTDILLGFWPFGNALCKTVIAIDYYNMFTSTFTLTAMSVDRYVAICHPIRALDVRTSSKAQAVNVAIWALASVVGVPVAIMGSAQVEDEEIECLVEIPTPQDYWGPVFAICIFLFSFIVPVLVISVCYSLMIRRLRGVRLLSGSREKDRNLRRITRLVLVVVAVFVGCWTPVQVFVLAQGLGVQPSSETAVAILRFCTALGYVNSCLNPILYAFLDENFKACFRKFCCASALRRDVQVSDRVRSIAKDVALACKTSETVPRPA
Method in brief: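 Affinity given as nanomolar Ki or as % inhibition at c=1 μM. Membranes of CHO cells expressing recombinant ORL1 (20 μg protein) were incubated one hour at room temperature with 0.5 nM 3H-nociceptin/orphanin FQ in Hepes 50 mM, pH 7.4, plus MgCl2 and EDTA; bound ligand detected by SPA bead scintillation counting.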

human μ-opiate receptor = biological target: T2, human μ-opiate receptor (Homo sapiens, UniProt P35372); experiment: μ-opiate receptor binding assay with [3H] naloxone (WGA-SPA beads); details: 1 μmol/l test substance, 1 nmol/l [3H] naloxone, CHO-K1 cell membranes expressing human μ-opiate receptor
T2 construct: purchased NEN, Zaventem, Belgium RB-HOM; host or cells: CHO-K1 cells (membrane preparation)
T2 sequence (P35372 whole entry): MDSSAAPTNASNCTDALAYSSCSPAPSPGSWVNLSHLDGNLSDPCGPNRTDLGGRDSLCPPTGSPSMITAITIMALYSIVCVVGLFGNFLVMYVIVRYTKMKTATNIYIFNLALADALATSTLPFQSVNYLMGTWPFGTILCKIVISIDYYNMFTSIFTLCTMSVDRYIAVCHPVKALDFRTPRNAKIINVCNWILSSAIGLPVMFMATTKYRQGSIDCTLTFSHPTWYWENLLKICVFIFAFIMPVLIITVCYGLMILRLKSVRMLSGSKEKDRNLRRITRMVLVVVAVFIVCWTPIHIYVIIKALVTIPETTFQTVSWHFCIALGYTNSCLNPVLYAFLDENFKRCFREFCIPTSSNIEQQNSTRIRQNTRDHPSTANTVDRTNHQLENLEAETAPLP
Method in brief: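 Scintillation proximity readout: [3H]naloxone (1 nmol/l) displacement measured after 90 min, room temperature, on human μ-receptor CHO-K1 membranes in Tris-HCl/azide/BSA buffer; 25 μmol/l naloxone defined non-specific binding. Values are % specific-binding inhibition at 1 μmol/l, or Ki from IC50 (Cheng-Prusoff).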

| Structure (SMILES) | inhibition at 1 µM (ORL1 receptor) [%] | inhibition at 1 µM (human μ-opiate receptor) [%] | % Inhibition (ORL1) at 1 μM (ORL1 receptor) [%] | % Inhibition (μ) at 1 μM (human μ-opiate receptor) [%] |
| --- | --- | --- | --- | --- |
| CN(C)C1(c2ccccc2)CCN(C(=O)C2CN(C(=O)Cc3c[nH]c4cc(F)ccc34)c3ccccc32)CC1 (stereo not shown) [Example 86, 1-(3-(4-(dimethylamino)-4-phenylpiperidine-1-carbonyl)indolin-1-yl)-2-(6-fluoro-1H-indol-3-yl)ethanone] | 94 | 88 |  |  |
| CN(CCN1CCC(c2ccccc2)(N(C)C)CC1)Cc1ccc2cc[nH]c2c1 [Example 181, 1-(2-(((1H-indol-6-yl)methyl)(methyl)amino)ethyl)-N,N-dimethyl-4-phenylpiperidin-4-amine] | 96 | 34 |  |  |
| CN(C(=O)c1ccc2ccn(C)c2c1)C(C(=O)N1CCC(c2cccs2)(N(C)C)CC1)c1ccccc1 (stereo not shown) [Example 111, N-(2-(4-(dimethylamino)-4-(thiophen-2-yl)piperidin-1-yl)-2-oxo-1-phenylethyl)-N,1-dimethyl-1H-indole-6-carboxamide] | 60 | 82 |  |  |
| CN(CCCN1CCC(c2ccccc2)(N(C)C)CC1)C(=O)C1CCCc2c1[nH]c1ccc(Cl)cc21 (stereo not shown) [Example 35, 6-Chloro-N-(3-(4-(dimethylamino)-4-phenylpiperidin-1-yl)propyl)-N-methyl-2,3,4,9-tetrahydro-1H-carbazole-1-carboxamide] | 79 | 57 |  |  |
| CN(CCN1CCC(c2ccccc2)(N(C)C)CC1)C(=O)c1ccc2ccn(C)c2c1 [Example 29, N-(2-(4-(Dimethylamino)-4-phenylpiperidin-1-yl)ethyl)-N,1-dimethyl-1H-indole-6-carboxamide] |  |  | 51 | 94 |
| CN(C)C1(c2ccccc2)CCN(C(=O)C2CCCN(C(=O)Cc3c[nH]c4cc(F)ccc34)C2)CC1 (stereo not shown) [Example 124, 1-(3-(4-(dimethylamino)-4-phenylpiperidine-1-carbonyl)piperidin-1-yl)-2-(6-fluoro-1H-indol-3-yl)ethanone] | 43 | 64 |  |  |
| CN(C)C1(c2cccs2)CCN(C(=O)CC(NC(=O)c2ccc3cc[nH]c3c2)c2ccccc2)CC1 (stereo not shown) [Example 96, N-(3-(4-(dimethylamino)-4-(thiophen-2-yl)piperidin-1-yl)-3-oxo-1-phenylpropyl)-1H-indole-6-carboxamide] | 79 | 96 |  |  |
| CC(C)c1ccc2c(CN(C)CCCN3CCC(c4cccs4)(N(C)C)CC3)c[nH]c2c1 [Example 67, 1-(3-(((6-Isopropyl-1H-indol-3-yl)methyl)(methyl)amino)propyl)-N,N-dimethyl-4-(thiophen-2-yl)piperidin-4-amine] | 90 | 93 |  |  |
| CN(CCN1CCC(c2ccccc2)(N(C)C)CC1)C(=O)c1cccc2c1ccn2C [Example 31, N-(2-(4-(Dimethylamino)-4-phenylpiperidin-1-yl)ethyl)-N,1-dimethyl-1H-indole-4-carboxamide] | 35 | 88 |  |  |
| CN(C)C1(c2cccs2)CCN(CCNC(=O)Cc2c[nH]c3cc(F)ccc23)CC1 [Example 8, N-(2-(4-(Dimethylamino)-4-(thiophen-2-yl)piperidin-1-yl)ethyl)-2-(6-fluoro-1H-indol-3-yl)acetamide] | 96 | 99 |  |  |
| CN(CCN1CCC(c2ccccc2)(N(C)C)CC1)Cc1ccc2cc[nH]c2c1 [Example 184, 1-(2-(((1H-indol-6-yl)methyl)(methy)amino)ethyl)-N,N-dimethyl-4-phenylpiperidin-4-amine] |  |  | 95 | 99 |
| Cc1c(CN(C)CCN2CCC(c3ccccc3)(N(C)C)CC2)c2ccccc2n1C [Example 189, 1-(2-(((1,2-dimethyl-1H-indol-3-yl)methyl)(methyl)amino)ethyl)-N,N-dimethyl-4-phenylpiperidin-4-amine] | 83 | 100 |  |  |
| CN(CCCN1CCC(c2cccs2)(N(C)C)CC1)C(=O)CCc1cn(C)c2ccccc12 [Example 13, N-(3-(4-(Dimethylamino)-4-(thiophen-2-yl)piperidin-1-yl)propyl)-N-methyl-3-(1-methyl-1H-indol-3-yl)propanamide] | 35 | 80 |  |  |
| COc1ccc2[nH]cc(CNCCN3CCC(c4cccs4)(N(C)C)CC3)c2c1 [Example 188, 1-(2-((5-methoxy-1H-indol-3-yl)methylamino)ethyl)-N,N-dimethyl-4-(thiophen-2-yl)piperidin-4-amine] | 85 | 99 |  |  |
| COc1ccc2[nH]cc(CN(C)CCN3CCC(c4ccccc4)(N(C)C)CC3)c2c1 [Example 75, 1-(2-(((5-Methoxy-1H-indol-3-yl)methyl)(methyl)amino)ethyl)-N,N-dimethyl-4-phenylpiperidin-4-amine] |  |  | 79 | 97 |
| CN(C)C1(c2ccccc2)CCN(C(=O)CCNC(=O)c2cccc3c2ccn3C)CC1 [Example 121, N-(3-(4-(dimethylamino)-4-phenylpiperidin-1-yl)-3-oxopropyl)-1-methyl-1H-indole-4-carboxamide] | 44 | 88 |  |  |
| CN(CCN1CCC(c2ccccc2)(N2CCCC2)CC1)C(=O)Cc1c[nH]c2cc(F)ccc12 [Example 36, 2-(6-Fluoro-1H-indol-3-yl)-N-methyl-N-(2-(4-phenyl-4-(pyrrolidin-1-yl)piperidin-1-yl)ethyl)acetamide] | 31 | 62 |  |  |
| CN(CCN1CCC(c2ccccc2)(N2CCCC2)CC1)C(=O)Cc1c[nH]c2ccc(Br)cc12 [Example 62, 2-(5-Bromo-1H-indol-3-yl)-N-methyl-N-(2-(4-phenyl-4-(pyrrolidin-1-yl)piperidin-1-yl)ethyl)acetamide] | 14 | 57 |  |  |
| CN(C)C1(c2cccs2)CCN(C(=O)CC(NCc2c[nH]c3ccccc23)c2ccccc2)CC1 (stereo not shown) [Example 164, 3-((1H-indol-3-yl)methylamino)-1-(4-(dimethylamino)-4-(thiophen-2-yl)piperidin-1-yl)-3-phenylpropan-1-one] | 82 | 96 |  |  |
| CN(C)C1(c2ccccc2)CCN(C(=O)CCNC(=O)CCc2c[nH]c3ccccc23)CC1 [Example 98, N-(3-(4-(dimethylamino)-4-phenylpiperidin-1-yl)-3-oxopropyl)-3-(1H-indol-3-yl)propanamide] | 73 | 85 |  |  |
| COc1ccc2c(c1)c(CN(C)CCN1CCC(c3ccccc3)(N(C)C)CC1)c(C)n2Cc1ccccc1 [Example 77, 1-(2-(((1-Benzyl-5-methoxy-2-methyl-1H-indol-3-yl)methyl)(methyl)amino)ethyl)-N,N-dimethyl-4-phenylpiperidin-4-amine] |  |  | 60 | 89 |
| CC(CC(=O)N(C)CCN1CCC(c2ccccc2)(N(C)C)CC1)c1c[nH]c2ccccc12 (stereo not shown) [Example 20, N-(2-(4-(Dimethylamino)-4-phenylpiperidin-1-yl)ethyl)-3-(1H-indol-3-yl)-N methylbutanamide] | 68 | 88 |  |  |
| CCCCC1(N(C)C)CCN(CCN(C)Cc2c[nH]c3ccccc23)CC1 [Example 138, 1-(2-(((1H-indol-3-yl)methyl)(methyl)amino)ethyl)-4-butyl-N,N-dimethylpiperidin-4-amine] | 12 | 81 |  |  |
| CC(C)C(CC(=O)N(C)C(C(=O)N1CCC(c2cccs2)(N(C)C)CC1)c1ccccc1)c1c[nH]c2ccccc12 (stereo not shown) [Example 105, N-(2-(4-(dimethylamino)-4-(thiophen-2-yl)piperidin-1-yl)-2-oxo-1-phenylethyl)-3-(1H-indol-3-yl)-N,4-dimethylpentanamide] | 63 | 91 |  |  |
| CN(C(=O)c1ccc2cc[nH]c2c1)C(C(=O)N1CCC(c2cccs2)(N(C)C)CC1)c1ccccc1 (stereo not shown) [Example 102, N-(2-(4-(dimethylamino)-4-(thiophen-2-yl)piperidin-1-yl)-2-oxo-1-phenylethyl)-N-methyl-1H-indole-6-carboxamide] | 65 | 66 |  |  |
| CN(C)C1(c2ccccc2)CCN(C(=O)CCNC(=O)c2ccc3ccn(C)c3c2)CC1 [Example 99, N-(3-(4-(dimethylamino)-4-phenylpiperidin-1-yl)-3-oxopropyl)-1-methyl-1H-indole-6-carboxamide] | 71 | 87 |  |  |
| CC(CC(=O)NC(CC(=O)N1CCC(c2cccs2)(N(C)C)CC1)c1ccccc1)c1c[nH]c2ccccc12 (stereo not shown) [Example 91, N-(3-(4-(dimethylamino)-4-(thiophen-2-yl)piperidin-1-yl)-3-oxo-1-phenylpropyl)-3-(1H-indol-3-yl)butanamide] | 89 | 97 |  |  |
| CN(CCCN1CCC(c2ccccc2)(N(C)C)CC1)C(=O)CCc1c[nH]c2ccccc12 [Example 61, N-(3-(4-(Dimethylamino)-4-phenylpiperidin-1-yl)propyl)-3-(1H-indol-3-yl)-N-methylpropanamide] | 65 | 89 |  |  |
| CC(C)C(CC(=O)N(C)CCN1CCC(c2ccccc2)(N(C)C)CC1)c1c[nH]c2ccccc12 (stereo not shown) [Example 24, N-(2-(4-(Dimethylamino)-4-phenylpiperidin-1-yl)ethyl)-3-(1H-indol-3-yl)-N,4-dimethylpentanamide] | 84 | 97 |  |  |
